Data as given in patent US8962671B2, “Amino-substituted 3-heteroaroylamino-propionic acid derivatives and their use as pharmaceuticals” (Sanofi, priority 2011, dated 2015).

Molecular target: T1, Recombinant human cathepsin A (Homo sapiens, UniProt P10619)
T1 construct: Recombinant human cathepsin A (residues 29-480, with a C-terminal 10-His tag); 10-His (C); purchased R&D Systems 1049-SE
T1 sequence (P10619 29-326 limits assumed): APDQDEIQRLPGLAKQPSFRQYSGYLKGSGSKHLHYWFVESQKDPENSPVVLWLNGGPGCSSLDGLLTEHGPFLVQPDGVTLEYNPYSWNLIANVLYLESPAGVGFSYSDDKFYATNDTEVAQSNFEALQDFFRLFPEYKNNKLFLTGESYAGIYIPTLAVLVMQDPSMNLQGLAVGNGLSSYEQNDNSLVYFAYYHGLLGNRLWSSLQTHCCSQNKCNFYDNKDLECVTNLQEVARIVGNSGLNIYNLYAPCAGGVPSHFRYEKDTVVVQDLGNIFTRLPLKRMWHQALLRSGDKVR
T1 sequence (P10619 327-480 limits assumed): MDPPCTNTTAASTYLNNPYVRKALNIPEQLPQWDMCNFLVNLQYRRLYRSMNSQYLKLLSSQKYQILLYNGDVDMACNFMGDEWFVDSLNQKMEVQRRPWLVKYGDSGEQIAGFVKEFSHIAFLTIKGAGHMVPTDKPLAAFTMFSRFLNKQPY
Test: Cathepsin A inhibitory activity
Type: biochemical
Conditions: activated recombinant human cathepsin A 833 ng/ml, Bodipy FL-labeled bradykinin 2 μM, pH 5.5, 15 min room temperature
Method: a) Cathepsin a Inhibitory Activity
Recombinant human cathepsin A (residues 29-480, with a C-terminal 10-His tag; R&D Systems, #1049-SE) was proteolytically activated with recombinant human cathepsin L (R&D Systems, #952-CY). Briefly, cathepsin A was incubated at 10 μg/ml with cathepsin L at 1 μg/ml in activation buffer (25 mM 2-(morpholin-4-yl)-ethanesulfonic acid (MES), pH 6.0, containing 5 mM dithiothreitol (DTT)) for 15 min at 37° C. Cathepsin L activity was then stopped by the addition of the cysteine protease inhibitor E-64 (N-(trans-epoxysuccinyl)-L-leucine-4-guanidinobutylamide; Sigma-Aldrich, #E3132; dissolved in activation buffer/DMSO) to a final concentration of 10 μM.
The activated cathepsin A was diluted in assay buffer (25 mM MES, pH 5.5, containing 5 mM DTT) and mixed with the test compound (dissolved in assay buffer containing (v/v) 3% DMSO) or, in the control experiments, with the vehicle in a multiple assay plate. After incubation for 15 min at room temperature, as substrate then bradykinin carrying an N-Terminal®Bodipy FL (4,4-difluoro-5,7-dimethyl-4-bora-3a,4a-diaza-s-indacene-3-propionyl) label (JPT Peptide Technologies GmbH; dissolved in assay buffer) was added to the mixture. The final concentration of cathepsin A was 833 ng/ml and the final concentration of labeled bradykinin 2 μM. After incubation for 15 min at room temperature the reaction was stopped by the addition of stop buffer (130 mM 2-(4-(2-hydroxy-ethyl)-piperazin-1-yl)-ethanesulfonic acid, pH 7.4, containing (v/v) 0.013%®Triton X-100, 0.13% Coating Reagent 3 (Caliper Life Sciences), 6.5% DMSO and 20 μM ebelactone B (Sigma, #E0886)).
Uncleaved substrate and product were then separated by a microfluidic capillary electrophoresis on a LabChip® 3000 Drug Discovery System (12-Sipper-Chip; Caliper Life Sciences) and quantified by determination of the respective peak areas. Substrate turnover was calculated by dividing product peak area by the sum of substrate and product peak areas, and the enzyme activity and the inhibitory effect of the test compound thus quantified. From the percentage of inhibition of cathepsin A activity observed with the test compound at several concentrations, the inhibitory concentration IC50, i.e. the concentration which effects 50% inhibition of enzyme activity was, calculated.

Row | SMILES | IC50
1 | O=C(O)CC1(NC(=O)c2cc(NC(=O)c3ccccc3)n(-c3ccccc3)n2)CCCC1 [Example 77, {1-[(5-Benzoylamino-1-phenyl-1H-pyrazole-3-carbonyl)-amino]-cyclopentyl}-acetic acid] | 73.4 nM
2 | O=C(O)CC(NC(=O)c1cc2[nH]c3ccccc3n2n1)c1cc(F)ccc1Cl (centres unmarked) [Example 32, 3-[(4H-Benzo[4,5]imidazo[1,2-b]pyrazole-2-carbonyl)-amino]-3-(2-chloro-5-fluoro-phenyl)-propionic acid] | 664 nM
3 | CN(C(=O)c1ccccc1)c1cc(C(=O)N[C@@H](CC(=O)O)c2ccc(Cl)cc2Cl)nn1-c1ccccc1 [Example 64, (S)-3-{[5-(Benzoyl-methyl-amino)-1-phenyl-1H-pyrazole-3-carbonyl]-amino}-3-(2,4-dichloro-phenyl)-propionic acid] | 64.7 nM
4 | Cc1ccccc1[C@H](CC(=O)O)NC(=O)c1cc(NC(=O)C(c2ccccc2)c2ccccc2)n(-c2ccccc2)n1 [Example 69, (S)-3-[(5-Diphenylacetylamino-1-phenyl-1H-pyrazole-3-carbonyl)-amino]-3-o-tolyl-propionic acid] | 125 nM
5 | Cc1ccccc1[C@H](CC(=O)O)NC(=O)c1cc(NC(=O)CO[C@@H]2C[C@H](C)CC[C@H]2C(C)C)n(-c2ccccc2)n1 [Example 68, (S)-3-({5-[2-((1R,2S,5R)-2-Isopropyl-5-methyl-cyclohexyloxy)-acetylamino]-1-phenyl-1H-pyrazole-3-carbonyl}-amino)-3-o-tolyl-propionic acid] | 1780 nM
6 | O=C(Nc1cc(C(=O)NCC(C(=O)O)c2ccccc2)nn1-c1ccccc1)c1ccccc1 (centres unmarked) [Example 82, 3-[(5-Benzoylamino-1-phenyl-1H-pyrazole-3-carbonyl)-amino]-2-phenyl-propionic acid] | 4870 nM
7 | CC(C)(CC(=O)O)NC(=O)c1cc2[nH]c3ccccc3n2n1 [Example 43, 3-[(4H-Benzo[4,5]imidazo[1,2-b]pyrazole-2-carbonyl)-amino]-3-methyl-butyric acid] | 5180 nM
8 | O=C(O)C[C@H](NC(=O)c1cc(NC(=O)c2ccccc2)n(-c2ccccc2)n1)c1ccccc1F [Example 83, (S)-3-[(5-Benzoylamino-1-phenyl-1H-pyrazole-3-carbonyl)-amino]-3-(2-fluoro-phenyl)-propionic acid] | 147 nM
9 | N#Cc1cccc([C@H](CC(=O)O)NC(=O)c2cc3[nH]c4ccccc4n3n2)c1 [Example 37, (S)-3-[(4H-Benzo[4,5]imidazo[1,2-b]pyrazole-2-carbonyl)-amino]-3-(3-cyano-phenyl)-propionic acid] | 3570 nM
10 | Cc1ccc(C(=O)Nc2cc(C(=O)N[C@@H](CC(=O)O)c3ccccc3C)nn2-c2ccccc2)o1 [Example 61, (S)-3-({5-[(5-Methyl-furan-2-carbonyl)-amino]-1-phenyl-1H-pyrazole-3-carbonyl}-amino)-3-o-tolyl-propionic acid] | 62.6 nM
11 | O=C(O)CC(NC(=O)c1cc2[nH]c3ccccc3n2n1)c1cc(F)ccc1F (centres unmarked) [Example 33, 3-[(4H-Benzo[4,5]imidazo[1,2-b]pyrazole-2-carbonyl)-amino]-3-(2,5-difluoro-phenyl)-propionic acid] | 2670 nM

These reach a lower IC50. Values come first.

Row | IC50 | SMILES
12 | 13.6 nM | Cc1ccccc1[C@H](CC(=O)O)NC(=O)c1cc(N2CCCS2(=O)=O)n(-c2ccccc2F)n1 [Example 12, (S)-3-{[5-(1,1-Dioxo-1lambda6-isothiazolidin-2-yl)-1-(2-fluoro-phenyl)-1H-pyrazole-3-carbonyl]-amino}-3-o-tolyl-propionic acid]
13 | 25.1 nM | Cc1ccccc1[C@H](CC(=O)O)NC(=O)c1cc(N)n(-c2ccccc2)n1 [Example 1, (S)-3-[(5-Amino-1-phenyl-1H-pyrazole-3-carbonyl)-amino]-3-o-tolyl-propionic acid]
14 | 27.1 nM | CC(C)(C)C(=O)Nc1cc(C(=O)N[C@@H](CC(=O)O)c2ccc(Cl)cc2Cl)nn1-c1ccccc1 [Example 53, (S)-3-(2,4-Dichloro-phenyl)-3-{[5-(2,2-dimethyl-propionylamino)-1-phenyl-1H-pyrazole-3-carbonyl]-amino}-propionic acid]
15 | 16.1 nM | Cc1ccccc1[C@H](CC(=O)O)NC(=O)c1cc(NCC(=O)C(C)(C)C)n(-c2ccccc2)n1 [Example 56, (S)-3-{[5-(3,3-Dimethyl-2-oxo-butylamino)-1-phenyl-1H-pyrazole-3-carbonyl]-amino}-3-o-tolyl-propionic acid]
16 | 34.1 nM | O=C(O)C[C@H](NC(=O)c1cc(NC(=O)c2ccccc2)n(-c2ccccc2)n1)c1ccc(F)cc1 [Example 78, (S)-3-[(5-Benzoylamino-1-phenyl-1H-pyrazole-3-carbonyl)-amino]-3-(4-fluoro-phenyl)-propionic acid]
17 | 18.7 nM | Cc1ccccc1[C@H](CC(=O)O)NC(=O)c1nn(-c2ccccc2F)c(N)c1C#N [Example 5, (S)-3-{[5-Amino-4-cyano-1-(2-fluoro-phenyl)-1H-pyrazole-3-carbonyl]-amino}-3-o-tolyl-propionic acid]
18 | 13.8 nM | Cc1ccccc1[C@H](CC(=O)O)NC(=O)c1cc(N)n(-c2ccccc2F)n1 [Example 3, (S)-3-{[5-Amino-1-(2-fluoro-phenyl)-1H-pyrazole-3-carbonyl]-amino}-3-o-tolyl-propionic acid]
19 | 12.1 nM | Cc1ccccc1[C@H](CC(=O)O)NC(=O)c1cc(NCC(O)C(C)(C)C)n(-c2ccccc2)n1 (stereo partly drawn) [Example 57, (S)-3-{[5-(2-Hydroxy-3,3-dimethyl-butylamino)-1-phenyl-1H-pyrazole-3-carbonyl]-amino}-3-o-tolyl-propionic acid]
20 | 11.3 nM | Cc1ccccc1[C@H](CC(=O)O)NC(=O)c1cc(NC[C@@H](O)C(C)(C)C)n(-c2ccccc2)n1 (single isomer, unassigned) [Example 60]
21 | 5.7 nM | CN(C(=O)c1ccccc1)c1cc(C(=O)N[C@@H](CC(=O)O)c2ccccc2Cl)nn1-c1ccccc1 [Example 70, (S)-3-{[5-(Benzoyl-methyl-amino)-1-phenyl-1H-pyrazole-3-carbonyl]-amino}-3-(2-chloro-phenyl)-propionic acid]
22 | 38.5 nM | Cc1ccccc1[C@H](CC(=O)O)NC(=O)c1cc(NCC(C)(O)C(C)(C)C)n(-c2ccccc2)n1 (stereo partly drawn) [Example 58, (S)-3-{[5-(2-Hydroxy-2.3,3-trimethyl-butylamino)-1-phenyl-1H-pyrazole-3-carbonyl]-amino}-3-o-tolyl-propionic acid]
23 | 45.6 nM | Cc1ccccc1[C@H](CC(=O)O)NC(=O)c1cc(N2CCCCC2=O)n(-c2ccccc2F)n1 [Example 18, (S)-3-{[1-(2-Fluoro-phenyl)-5-(2-oxo-piperidin-1-yl)-1H-pyrazole-3-carbonyl]-amino}-3-o-tolyl-propionic acid]
24 | 24.9 nM | Cc1ccccc1[C@H](CC(=O)O)NC(=O)c1cc(NC[C@H](O)C(C)(C)C)n(-c2ccccc2)n1 (single isomer, unassigned) [Example 59]
25 | 20.4 nM | Nc1cc(C(=O)NC(CC(=O)O)c2ccc(-c3ccccn3)cc2)nn1-c1ccccc1F (centres unmarked) [Example 7, 3-{[5-Amino-1-(2-fluoro-phenyl)-1H-pyrazole-3-carbonyl]-amino}-3-(4-pyridin-2-yl-phenyl)-propionic acid]
26 | 49 nM | Cc1ccccc1[C@H](CC(=O)O)NC(=O)c1cc(NCC2CC2)n(-c2ccccc2)n1 [Example 50, (S)-3-{[5-(Cyclopropylmethyl-amino)-1-phenyl-1H-pyrazole-3-carbonyl]-amino}-3-o-tolyl-propionic acid]
